Data: patent US20180267067A1, “METHODS FOR BIOANALYSIS OF 6-DIAZO-5-OXO-L-NORLEUCINE (DON) AND OTHER GLUTAMINE ANTAGONISTS” (THE JOHNS HOPKINS UNIVERSITY, priority 2015, published 2018)
Like-named read-outs stand apart in the source and are kept apart here.

Assays:
[1] = DON concentration in plasma from DON-treated mice, direct versus derivatization protocols; settings: male, C57BL/6, mouse, in vivo, iv, 1.6 mg/kg, 1.6 mg/kg i.v., 15 min after administration, N=3, ±S.D.
Experimental: Mouse plasma samples were obtained 15 min after DON administration (1.6 mg/kg, i.v.). For LC-MS bioanalysis of underivatized DON from plasma, DON was extracted from plasma with methanol, dried and resuspended in H2O and separated in a Hypercarb column. For LC-MS bioanalysis of derivatized DON from plasma, DON was derivatized in butanol containing 3N HCl for 30 min at 60° C., dried, reconstituted in 30% acetonitrile and separated by RPC. Analytes eluting after each chromatographic separation were detected by QTOF MS. N=3 for each treatment. Error bars correspond to ±S.D.
Methanol (250 μL) was added to plasma samples containing DON (50 μL); samples were centrifuged for 5 min at 16,000×g to precipitate proteins. […] Analytes were detected with an Agilent 6520 QTOF in MS mode as when analyzing derivatized DON by LC-MS.
(§1) When using plasma, DON was derivatized only using 3N HCl plus n-butanol and subsequently analyzed by LC-MS. […] After derivatization, an aliquot of the reaction mixture (2 μL) was injected and analyzed by LC-MS as stated above. The area under the curve (AUC) representing the signal intensity of the extracted ion (m/z 218.0942) for each sample was used to generate the standard curve using Agilent Mass Hunter Quantitative analysis software. […] DON concentrations in plasma samples were determined by interpolation using the standard curve. […]

[2] = DON plasma and brain concentrations in mice after i.p. administration (LC-MS after acidified butanol derivatization); format: in vivo; settings: for Kp at 1 h: brain/plasma
Experimental: (§2) FIG. 5A and FIG. 5B show: (FIG. 5A) DON concentrations in plasma over time. Mice were administered DON at 1.6 mg/kg (i.v.). Mice were euthanized and blood was collected transcardially 0.25, 0.5, 1, 2, 4 and 6 hours after dosing. Blood was centrifuged, plasma collected and stored at −80° C. N-butanol containing 3N HCl (250 μL) was added directly to samples (50 μL) and centrifuged at 16,000×g for 5 min to precipitate proteins. An aliquot (200 μL) of the supernatant was incubated at 60° C. for 30 min. After derivatization, the samples were analyzed by LC-MS (methods); and (FIG. 5B) DON plasma to brain ratio analysis. Mice were administered DON (0.6 mg/kg, i.p.) and blood and brain were collected 1 h after DON administration. Plasma was isolated from blood samples as described in (FIG. 5A). Brains were collected following perfusion with PBS and frozen immediately at −80° C. Before bioanalysis, brains were weighed and n-butanol containing 3N HCl was added to each sample (5 μL/mg tissue) and homogenized using a pestle. Resulting homogenates were centrifuged at 16,000×g for 5 min to precipitate proteins and analyzed the same way as the plasma samples. All determinations in both (A) and (B) were carried out in triplicate. Error bars correspond to ±S.E.M; and
When using plasma, DON was derivatized only using 3N HCl plus n-butanol and subsequently analyzed by LC-MS. To generate the standard curve to determine DON concentrations in plasma, DON (10 μL of 1 mM water solution) was added to untreated mouse plasma (90 μL) in a low retention micro-centrifuge tube. Standard solutions (100 μL) were then prepared by serial dilution to generate concentrations from 10 nM to 100 μM at half-log intervals. Prior to extraction, frozen plasma samples were thawed on ice. N-butanol (250 μL) containing 3N HCl was added directly to standards (50 μL), vortexed and centrifuged at 16,000×g for 5 minutes in low retention micro-centrifuge tubes to precipitate proteins. […] After derivatization, an aliquot of the reaction mixture (2 μL) was injected and analyzed by LC-MS as stated above. The area under the curve (AUC) representing the signal intensity of the extracted ion (m/z 218.0942) for each sample was used to generate the standard curve using Agilent Mass Hunter Quantitative analysis software. […] DON concentrations in plasma samples were determined by interpolation using the standard curve.
When using brain, DON was derivatized only using 3N HCl plus n-butanol and subsequently analyzed by LC-MS. […] After derivatization, an aliquot of the reaction mixture (2 μL) was injected and analyzed by LC-MS as stated above. […] DON concentrations in brain samples were determined by interpolation using the standard curve. […]

[3] = DON plasma pharmacokinetics in mice after i.v. administration (LC-MS after acidified butanol derivatization); format: in vivo; settings: male, C57BL/6, mouse, iv, 1.6 mg/kg i.v.
Experimental: as §2, with “Plasma was isolated from blood samples as described in (FIG. 5A). Brains were collected following perfusion with PBS and frozen immediately at −80° C. Before bioanalysis, brains were weighed and n-butanol containing 3N HCl was added to each sample (5 μL/mg tissue) and homogenized using a pestle.” left out, “All determinations in both (A) and (B) were carried out in triplicate. Error bars correspond to ±S.E.M; and” left out
as §1

[N-]=[N+]=CC(=O)CC[C@H](N)C(=O)O [DON, 6-Diazo-5-oxo-L-norleucine]
concentration at 15 min ([1]; read-out: DON concentration in plasma, derivatization method (acidified butanol, LC-MS)): 4.2 µM | concentration at 15 min ([1]; read-out: DON concentration in plasma, direct method (underivatized DON, Hypercarb LC-MS)): 3.9 µM | DON concentration in brain ([2]; 0.6 mg/kg i.p., 1 h after administration, brains perfused with PBS, ±S.E.M.): 0.22±0.18 nmol/g tissue | Kp at 1 h ([2]; male, C57BL/6, mouse, intraperitoneal, 0.6 mg/kg, at 1 h, read-out: brain/plasma ratio): 0.1 | Kp at 1 h ([2]; male, C57BL/6, mouse, ip, 0.6 mg/kg i.p., 1 h, read-out: brain to plasma ratio): ~0.1 | concentration at 1 h ([2]; male, C57BL/6, mouse, plasma, ip, 0.6 mg/kg i.p., 1 h after administration, ±S.E.M.): 1.7 ± 0.5 µM | AUC ([3]; in vivo, 0.25-6 h, read-out: exposure of DON estimated from the area under the curve (AUC)): 8 µM·h | half-life [3]: 1.2 h
